Measured values taken from US12371428B2 (Exelixis, Inc., priority 2019, dated 2025).
Where a name gives a salt, the structure may show the parent alone.

Tests used:
[1] = biological target: Met (phospho-Met, HGF-stimulated PC-3 prostate cancer cells) (Homo sapiens (Human), UniProt P08581); assay: Met autophosphorylation ELISA in PC-3 cells (Example F); type: cell-based; conditions: cellular activity; Met autophosphorylation ELISA in PC-3 cells; read-out: c-Met IC50
Summary of the method: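 Sandwich ELISA for phospho-Met (panTyr) in PC-3 lysates. Cells starved 3 h serum-free, compound 1 h (8-pt curve, 0.3% DMSO), HGF 100 ng/mL 10 min. 100% = HGF + DMSO; 0% = HGF + reference inhibitor. IC50 by 4-parameter fit.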

[2] = biological target: Mer (phospho-Mer, MERTK-transfected 293A cells) (Homo sapiens (Human), UniProt Q12866); assay: Mer autophosphorylation ELISA in transient transfected 293A cells (Example H); type: cell-based; conditions: cellular activity; Mer autophosphorylation ELISA in transient transfected 293A cells
Summary of the method: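 293A cells transiently transfected with human MERTK were treated 1 h in serum-free medium with an 8-point compound dilution (0.3% DMSO final). Lysates were assayed by phospho-Mer sandwich ELISA against a phospho-Mer standard; IC50 came from a 4-parameter logistic fit, normalised to DMSO (100%) and reference-inhibitor (0%) controls.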

[3] = biological target: Human KDR (residues 790-1356) (Homo sapiens (Human), UniProt P35968); assay: Human KDR kinase assay, HTRF KinEase (Example B-2); type: biochemical; conditions: protocol of Example B-2 (other compounds)
Summary of the method: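 Human KDR residues 790-1356 (0.1 ng/well) in buffer with 5 mM MgCl2, 1 mM MnCl2, 1 mM DTT, biotinylated peptide substrate, ATP at Km (4.0 μM), 3% DMSO, 10 compound concentrations; 40 min, room temperature. EDTA stop, streptavidin-XL665/Eu-TK antibody HTRF read 665/620 nm; 4-parameter IC50.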

Met (phospho-Met, HGF-stimulated PC-3 prostate cancer cells), sequence (P08581 25-1390): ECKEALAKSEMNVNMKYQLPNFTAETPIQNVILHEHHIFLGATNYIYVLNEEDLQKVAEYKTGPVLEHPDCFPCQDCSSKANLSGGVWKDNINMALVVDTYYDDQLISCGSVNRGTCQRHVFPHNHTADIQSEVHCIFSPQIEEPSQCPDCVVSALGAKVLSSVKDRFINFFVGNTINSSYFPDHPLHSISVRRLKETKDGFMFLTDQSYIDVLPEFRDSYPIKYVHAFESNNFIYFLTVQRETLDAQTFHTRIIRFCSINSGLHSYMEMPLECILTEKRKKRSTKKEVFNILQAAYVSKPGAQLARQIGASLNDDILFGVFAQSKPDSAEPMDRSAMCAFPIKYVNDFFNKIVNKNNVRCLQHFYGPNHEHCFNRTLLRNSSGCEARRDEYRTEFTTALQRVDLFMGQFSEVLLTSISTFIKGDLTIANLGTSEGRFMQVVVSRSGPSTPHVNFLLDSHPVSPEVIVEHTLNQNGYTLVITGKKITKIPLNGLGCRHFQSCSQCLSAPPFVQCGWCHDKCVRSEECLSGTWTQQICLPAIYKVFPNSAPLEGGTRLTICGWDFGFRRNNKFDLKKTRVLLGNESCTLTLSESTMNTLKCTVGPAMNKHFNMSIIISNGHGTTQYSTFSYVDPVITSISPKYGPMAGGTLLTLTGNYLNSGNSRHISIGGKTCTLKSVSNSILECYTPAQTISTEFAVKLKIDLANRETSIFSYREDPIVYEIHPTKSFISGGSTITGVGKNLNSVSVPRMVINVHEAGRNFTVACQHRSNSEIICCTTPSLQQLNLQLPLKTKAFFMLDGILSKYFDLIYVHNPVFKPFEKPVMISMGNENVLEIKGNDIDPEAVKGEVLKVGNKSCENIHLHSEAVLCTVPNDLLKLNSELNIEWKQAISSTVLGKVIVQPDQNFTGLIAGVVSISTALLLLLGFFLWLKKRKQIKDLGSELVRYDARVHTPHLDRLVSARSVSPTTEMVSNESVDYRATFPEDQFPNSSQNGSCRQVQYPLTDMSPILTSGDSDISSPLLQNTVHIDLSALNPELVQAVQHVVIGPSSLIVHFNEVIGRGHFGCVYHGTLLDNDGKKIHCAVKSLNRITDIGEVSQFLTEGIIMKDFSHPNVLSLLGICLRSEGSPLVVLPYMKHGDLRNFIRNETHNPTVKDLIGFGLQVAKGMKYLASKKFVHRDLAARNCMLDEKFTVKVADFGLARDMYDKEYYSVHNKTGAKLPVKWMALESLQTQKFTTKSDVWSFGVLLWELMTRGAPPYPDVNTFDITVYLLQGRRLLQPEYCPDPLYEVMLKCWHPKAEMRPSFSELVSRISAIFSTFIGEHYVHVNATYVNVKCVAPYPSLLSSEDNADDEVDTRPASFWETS
Mer (phospho-Mer, MERTK-transfected 293A cells), sequence (Q12866 21-999): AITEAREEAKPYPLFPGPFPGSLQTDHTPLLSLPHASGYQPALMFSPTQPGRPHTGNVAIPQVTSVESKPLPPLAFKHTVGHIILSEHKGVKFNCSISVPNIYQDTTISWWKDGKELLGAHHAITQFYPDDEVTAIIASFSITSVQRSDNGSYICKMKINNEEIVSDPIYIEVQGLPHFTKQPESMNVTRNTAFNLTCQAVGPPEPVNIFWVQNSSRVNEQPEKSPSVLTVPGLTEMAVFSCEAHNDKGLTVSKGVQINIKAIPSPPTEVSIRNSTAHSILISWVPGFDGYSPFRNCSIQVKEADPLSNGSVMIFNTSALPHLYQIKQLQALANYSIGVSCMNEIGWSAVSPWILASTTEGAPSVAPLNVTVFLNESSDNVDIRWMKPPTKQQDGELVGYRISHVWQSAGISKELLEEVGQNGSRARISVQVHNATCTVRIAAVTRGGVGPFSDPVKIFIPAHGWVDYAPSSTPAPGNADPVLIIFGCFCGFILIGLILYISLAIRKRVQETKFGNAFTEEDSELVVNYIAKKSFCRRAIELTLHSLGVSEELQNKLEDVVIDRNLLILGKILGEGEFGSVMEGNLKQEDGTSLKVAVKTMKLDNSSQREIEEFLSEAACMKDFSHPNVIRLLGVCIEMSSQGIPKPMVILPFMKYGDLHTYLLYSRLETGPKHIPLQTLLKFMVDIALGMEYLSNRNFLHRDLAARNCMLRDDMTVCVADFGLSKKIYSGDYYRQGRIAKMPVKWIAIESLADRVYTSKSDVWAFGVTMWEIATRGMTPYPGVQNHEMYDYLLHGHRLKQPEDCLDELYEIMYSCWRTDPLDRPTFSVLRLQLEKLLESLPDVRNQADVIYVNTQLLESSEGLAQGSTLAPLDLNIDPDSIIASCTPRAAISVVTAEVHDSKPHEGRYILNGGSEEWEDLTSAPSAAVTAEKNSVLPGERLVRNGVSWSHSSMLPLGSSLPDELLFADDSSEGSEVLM
Human KDR (residues 790-1356), sequence (P35968 790-1356): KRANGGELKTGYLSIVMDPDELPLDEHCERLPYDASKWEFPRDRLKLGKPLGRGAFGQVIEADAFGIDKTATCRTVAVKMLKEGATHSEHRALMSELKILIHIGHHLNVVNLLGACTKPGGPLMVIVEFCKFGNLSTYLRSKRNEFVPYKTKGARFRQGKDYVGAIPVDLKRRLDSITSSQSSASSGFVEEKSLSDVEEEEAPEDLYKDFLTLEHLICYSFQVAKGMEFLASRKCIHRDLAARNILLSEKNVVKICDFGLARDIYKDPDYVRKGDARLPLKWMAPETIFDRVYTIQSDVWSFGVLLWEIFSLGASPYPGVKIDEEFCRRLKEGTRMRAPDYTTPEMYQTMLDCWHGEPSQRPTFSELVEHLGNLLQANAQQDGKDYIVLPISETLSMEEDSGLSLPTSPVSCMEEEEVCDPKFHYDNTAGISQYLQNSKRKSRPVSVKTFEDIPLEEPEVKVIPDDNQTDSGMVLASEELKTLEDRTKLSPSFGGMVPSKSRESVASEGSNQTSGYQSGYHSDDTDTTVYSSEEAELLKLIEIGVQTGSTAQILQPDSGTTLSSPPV

Row | Structure (SMILES) | IC50 [1] [nM] | IC50 [2] [nM] | IC50 [3] [nM]
1 | CCc1nc(C)c(-c2ccc(F)cc2C)c(O)c1C(=O)Nc1ccc(Oc2ccnc3ccc(OC)nc23)c(F)c1 [Compound 206, 2-Ethyl-N-[3-fluoro-4-[(6-methoxy-1,5-naphthyridin-4-yl)oxy]phenyl]-5-(4-fluoro-2-methylphenyl)-4-hydroxy-6-methylpyridine-3-carboxamide] | < 100 | < 100 | > 300
2 | COc1cnc2c(Oc3ccc(NC(=O)c4c(C)ncc(-c5ccc(F)cc5)c4O)cc3)ccnc2c1 [Compound 236, 5-(4-Fluorophenyl)-4-hydroxy-N-[4-[(7-methoxy-1,5-naphthyridin-4-yl)oxy]phenyl]-2-methylpyridine-3-carboxamide] | < 100 | < 100 | < 100
3 | COc1ccc2nccc(Oc3ccc(NC(=O)c4cn(C)c(CO)c(-c5ccc(F)cc5)c4=O)cc3F)c2n1 [Compound 224, N-[3-Fluoro-4-[(6-methoxy-1,5-naphthyridin-4-yl)oxy]phenyl]-5-(4-fluorophenyl)-6-(hydroxymethyl)-1-methyl-4-oxopyridine-3-carboxamide] | 100 to 300 | < 100 | > 300
4 | COCc1nc(C)c(-c2ccc(F)cc2)c(O)c1C(=O)Nc1ccc(Oc2ccnc3cc(OC)c(OC)nc23)cc1 [Compound 190, N-[4-[(6,7-Dimethoxy-1,5-naphthyridin-4-yl)oxy]phenyl]-5-(4-fluorophenyl)-4-hydroxy-2-(methoxymethyl)-6-methylpyridine-3-carboxamide] | < 100 | < 100 | < 100
5 | COc1cc2nccc(Oc3ccc(NC(=O)c4cn(C)c(C)c(-c5ccccc5)c4=O)cc3F)c2nc1OC [Compound 36, N-[4-[(6,7-Dimethoxy-1,5-naphthyridin-4-yl)oxy]-3-fluorophenyl]-1,6-dimethyl-4-oxo-5-phenylpyridine-3-carboxamide hydrochloride] | < 100 | < 100 | < 100
6 | COc1ccc2nccc(Oc3ccc(NC(=O)c4cn(C)c(C)c(-c5ccc(F)cc5C)c4=O)cc3F)c2n1 [Compound 183, N-[3-Fluoro-4-[(6-methoxy-1,5-naphthyridin-4-yl)oxy]phenyl]-5-(4-fluoro-2-methylphenyl)-1,6-dimethyl-4-oxopyridine-3-carboxamide] | 100 to 300 | < 100 | > 300
7 | CCc1nc(C)c(-c2ccc(F)cc2C)c(O)c1C(=O)Nc1ccc(Oc2ccnc3cc(OC)cnc23)cc1 [Compound 205, 2-Ethyl-5-(4-fluoro-2-methylphenyl)-4-hydroxy-N-[4-[(7-methoxy-1,5-naphthyridin-4-yl)oxy]phenyl]-6-methylpyridine-3-carboxamide] | < 100 | < 100 | > 300
8 | COc1cnc2c(Oc3ccc(NC(=O)c4nn(C)c(C)c(-c5ccc(F)cc5)c4=O)cc3)ccnc2c1 [Compound 251, 5-(4-Fluorophenyl)-N-[4-[(7-methoxy-1,5-naphthyridin-4-yl)oxy]phenyl]-1,6-dimethyl-4-oxopyridazine-3-carboxamide] | < 100 | < 100 | > 300
9 | COc1ccc2nccc(Oc3ccc(NC(=O)c4n[nH]c(C)c(-c5ccc(F)cc5C)c4=O)cc3F)c2n1 [Compound 230, N-[3-Fluoro-4-[(6-methoxy-1,5-naphthyridin-4-yl)oxy]phenyl]-5-(4-fluoro-2-methylphenyl)-6-methyl-4-oxo-1H-pyridazine-3-carboxamide] | 100 to 300 | < 100 | > 300
10 | COc1cc2nccc(Oc3ccc(NC(=O)c4cn(CC(F)(F)F)c(C)c(-c5ccc(F)cc5)c4=O)cc3F)c2cc1OC [Compound 259, N-[4-(6,7-Dimethoxyquinolin-4-yl)oxy-3-fluorophenyl]-5-(4-fluorophenyl)-6-methyl-4-oxo-1-(2,2,2-trifluoroethyl)pyridine-3-carboxamide] | < 100 | < 100 | 100 to 300
11 | CCc1nc(C)c(-c2ccc(F)cc2)c(O)c1C(=O)Nc1ccc(Oc2ccnc3cc(OC)c(OC)nc23)cc1 [Compound 197, N-[4-[(6,7-Dimethoxy-1,5-naphthyridin-4-yl)oxy]phenyl]-2-ethyl-5-(4-fluorophenyl)-4-hydroxy-6-methylpyridine-3-carboxamide] | < 100 | < 100 | < 100
12 | COc1cc2nccc(Oc3ccc(NC(=O)c4ncc(C)n(-c5ccc(F)cc5)c4=O)cc3)c2nc1OC [Compound 262, N-[4-[(6,7-Dimethoxy-1,5-naphthyridin-4-yl)oxy]phenyl]-4-(4-fluorophenyl)-5-methyl-3-oxopyrazine-2-carboxamide] | < 100 | < 100 | < 100
13 | COCc1nc(C)c(-c2ccc(F)cc2)c(O)c1C(=O)Nc1ccc(Oc2ccnc3ccc(OC)nc23)c(F)c1 [Compound 189, N-[3-Fluoro-4-[(6-methoxy-1,5-naphthyridin-4-yl)oxy]phenyl]-5-(4-fluorophenyl)-4-hydroxy-2-(methoxymethyl)-6-methylpyridine-3-carboxamide] | < 100 | < 100 | 100 to 300
14 | COc1ccc2nccc(Oc3ccc(NC(=O)c4cnc(C)n(-c5ccc(F)cc5)c4=O)cc3F)c2n1 [Compound 232, N-[3-Fluoro-4-[(6-methoxy-1,5-naphthyridin-4-yl)oxy]phenyl]-1-(4-fluorophenyl)-2-methyl-6-oxopyrimidine-5-carboxamide] | < 100 | < 100 | > 300
15 | COCc1nc(C)c(-c2ccc(F)cc2C)c(O)c1C(=O)Nc1ccc(Oc2ccnc3cc(OC)c(OC)nc23)cc1 [Compound 192, N-[4-[(6,7-Dimethoxy-1,5-naphthyridin-4-yl)oxy]phenyl]-5-(4-fluoro-2-methylphenyl)-4-hydroxy-2-(methoxymethyl)-6-methylpyridine-3-carboxamide] | < 100 | < 100 | < 100
16 | COc1cc2nccc(Oc3ccc(NC(=O)c4cn(C)c(CO)c(-c5ccc(F)cc5)c4=O)cc3)c2nc1OC [Compound 221, N-[4-[(6,7-Dimethoxy-1,5-naphthyridin-4-yl)oxy]phenyl]-5-(4-fluorophenyl)-6-(hydroxymethyl)-1-methyl-4-oxopyridine-3-carboxamide] | < 100 | < 100 | 100 to 300
17 | CCn1cc(-c2ccc(F)cc2)c(=O)c(C(=O)Nc2ccc(Oc3ccnc4cc(OC)cnc34)c(F)c2)c1C [Compound 240, 1-Ethyl-N-[3-fluoro-4-[(7-methoxy-1,5-naphthyridin-4-yl)oxy]phenyl]-5-(4-fluorophenyl)-2-methyl-4-oxopyridine-3-carboxamide] | < 100 | < 100 | > 300
18 | CCc1nc(C)c(-c2ccc(F)cc2)c(O)c1C(=O)Nc1ccc(Oc2ccnc3cc(OC)cnc23)c(F)c1 [Compound 180, 2-Ethyl-N-[3-fluoro-4-[(7-methoxy-1,5-naphthyridin-4-yl)oxy]phenyl]-5-(4-fluorophenyl)-4-hydroxy-6-methylpyridine-3-carboxamide] | < 100 | < 100 | < 100
19 | COc1cc2nccc(Oc3ccc(NC(=O)c4cn(C(C)C)c(C)c(-c5cccc(F)c5)c4=O)cc3F)c2nc1OC [Compound 30, N-[4-[(6,7-Dimethoxy-1,5-naphthyridin-4-yl)oxy]-3-fluorophenyl]-5-(3-fluorophenyl)-6-methyl-4-oxo-1-propan-2-ylpyridine-3-carboxamide hydrochloride] | < 100 | < 100 | < 100
20 | COc1ccc2nccc(Oc3ccc(NC(=O)c4c(C)n(C)cc(-c5ccc(F)cc5)c4=O)cc3F)c2n1 [Compound 243, N-[3-Fluoro-4-[(6-methoxy-1,5-naphthyridin-4-yl)oxy]phenyl]-5-(4-fluorophenyl)-1,2-dimethyl-4-oxopyridine-3-carboxamide] | < 100 | < 100 | > 300
21 | COCc1nc(C)c(-c2ccc(F)cc2C)c(O)c1C(=O)Nc1ccc(Oc2ccnc3cc(OC)cnc23)cc1 [Compound 194, 5-(4-Fluoro-2-methylphenyl)-4-hydroxy-2-(methoxymethyl)-N-[4-[(7-methoxy-1,5-naphthyridin-4-yl)oxy]phenyl]-6-methylpyridine-3-carboxamide] | < 100 | < 100 | 100 to 300
22 | COc1cnc2c(Oc3ccc(NC(=O)c4cn(CC(F)(F)F)c(C)c(-c5ccc(F)cc5)c4=O)cc3F)ccnc2c1 [Compound 261, N-[3-Fluoro-4-[(7-methoxy-1,5-naphthyridin-4-yl)oxy]phenyl]-5-(4-fluorophenyl)-6-methyl-4-oxo-1-(2,2,2-trifluoroethyl)pyridine-3-carboxamide] | < 100 | < 100 | > 300
23 | COc1cnc2c(Oc3ccc(NC(=O)c4ccc(C)n(-c5ccc(F)cc5)c4=O)cc3)ccnc2c1 [Compound 216, 1-(4-Fluorophenyl)-N-[4-[(7-methoxy-1,5-naphthyridin-4-yl)oxy]phenyl]-6-methyl-2-oxopyridine-3-carboxamide] | < 100 | < 100 | < 100
